This note sets out measurements from ChEMBL document CHEMBL4373747 (ACS Med Chem Lett, 2020).

Structures are written as SMILES.

The target of one series is Histone deacetylase 3 (Homo sapiens, UniProt O15379). Briefly: Inhibition of recombinant full length human HDAC3 expressed in baculovirus infected Sf9 cells using FAM-RHKK-Ac as substrate incubated for 3 hrs by electrophoretic mobility shift assay. A general note: Mobility shift assays separate free from complexed probe on a gel.
For another series, the target named is T1, Histone deacetylase 8 (Homo sapiens, UniProt Q9BY41).
T1 sequence (Q9BY41 whole entry): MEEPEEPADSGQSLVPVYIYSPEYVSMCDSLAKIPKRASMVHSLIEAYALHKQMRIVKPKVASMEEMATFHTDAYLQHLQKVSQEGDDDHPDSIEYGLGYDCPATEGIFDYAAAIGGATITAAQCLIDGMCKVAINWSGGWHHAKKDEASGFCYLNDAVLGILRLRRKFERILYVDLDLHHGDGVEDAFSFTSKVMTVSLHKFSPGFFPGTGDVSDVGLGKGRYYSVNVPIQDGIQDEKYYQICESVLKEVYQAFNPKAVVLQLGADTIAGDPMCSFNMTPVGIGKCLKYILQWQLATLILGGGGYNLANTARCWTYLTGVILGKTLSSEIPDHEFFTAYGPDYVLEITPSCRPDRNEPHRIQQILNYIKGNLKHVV
Description: Inhibition of recombinant full length human HDAC8 expressed in baculovirus infected Sf9 cells using FAM-RHKK-TFAc as substrate incubated for 3 hrs by electrophoretic mobility shift assay.

The target of the next series is T2, Histone deacetylase 7 (Homo sapiens, UniProt Q8WUI4).
T2 sequence (Q8WUI4 whole entry): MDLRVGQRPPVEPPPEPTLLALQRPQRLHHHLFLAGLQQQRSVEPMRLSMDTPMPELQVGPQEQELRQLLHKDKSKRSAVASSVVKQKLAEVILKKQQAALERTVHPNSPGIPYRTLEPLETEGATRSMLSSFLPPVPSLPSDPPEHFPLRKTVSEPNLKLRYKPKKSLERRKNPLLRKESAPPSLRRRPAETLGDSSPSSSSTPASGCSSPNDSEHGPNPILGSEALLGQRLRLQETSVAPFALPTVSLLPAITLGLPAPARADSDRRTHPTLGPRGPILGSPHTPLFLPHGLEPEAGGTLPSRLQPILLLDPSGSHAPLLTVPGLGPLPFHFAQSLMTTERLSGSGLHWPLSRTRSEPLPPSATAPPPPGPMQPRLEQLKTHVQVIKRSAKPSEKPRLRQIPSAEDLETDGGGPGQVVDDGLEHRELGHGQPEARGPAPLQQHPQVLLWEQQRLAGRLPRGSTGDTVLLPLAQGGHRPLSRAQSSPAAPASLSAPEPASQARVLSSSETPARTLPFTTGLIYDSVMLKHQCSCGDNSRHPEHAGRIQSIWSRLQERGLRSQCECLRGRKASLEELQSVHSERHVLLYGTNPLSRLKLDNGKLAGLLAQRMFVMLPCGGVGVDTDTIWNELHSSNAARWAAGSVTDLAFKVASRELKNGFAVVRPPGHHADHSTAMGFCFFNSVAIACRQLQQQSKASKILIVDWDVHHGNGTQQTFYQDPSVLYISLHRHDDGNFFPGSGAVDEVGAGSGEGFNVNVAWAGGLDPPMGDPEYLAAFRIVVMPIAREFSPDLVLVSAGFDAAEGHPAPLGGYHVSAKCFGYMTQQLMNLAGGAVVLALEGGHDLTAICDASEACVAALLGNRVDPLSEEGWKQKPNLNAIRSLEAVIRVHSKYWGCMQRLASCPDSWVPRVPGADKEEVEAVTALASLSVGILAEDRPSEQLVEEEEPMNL
Description: Inhibition of recombinant full length human HDAC7 expressed in baculovirus infected Sf9 cells using FAM-RHKK-TFAc as substrate incubated for 3 hrs by electrophoretic mobility shift assay.

For series [1], the system named is MV4-11. Briefly: Induction of apoptosis in human MV4-11 cells assessed as viable cells at 0.5 uM incubated for 18 hrs by annexin V FITC and PI based flow cytometry (reference value: 53.01 to 53.07 %). The settings on record: Homo sapiens, MV4-11, 18 h; read-out: Activity. In kind it is functional.
For series [2], the system named is MV4-11. Briefly: Induction of apoptosis in human MV4-11 cells assessed as early apoptotic cells at 0.5 uM incubated for 18 hrs by annexin V FITC and PI based flow cytometry (reference value: 19.46 to 22.17 %). It is filed as functional. On the technique in general: Flow cytometry measures light scatter and fluorescence of single cells or particles in a stream.

Series [3] is described as follows: Stability in ICR/CD1 mouse hepatocytes assessed as half life at 1 uM measured upto 120 mins by LCMS analysis. It is filed as ADME, cell-based, Hepatocyte. Conditions: 2 h.
Series [4] concerns the target T3, Protein deacetylase HDAC6 (Homo sapiens) (UniProt Q9UBN7).
T3 sequence (whole entry): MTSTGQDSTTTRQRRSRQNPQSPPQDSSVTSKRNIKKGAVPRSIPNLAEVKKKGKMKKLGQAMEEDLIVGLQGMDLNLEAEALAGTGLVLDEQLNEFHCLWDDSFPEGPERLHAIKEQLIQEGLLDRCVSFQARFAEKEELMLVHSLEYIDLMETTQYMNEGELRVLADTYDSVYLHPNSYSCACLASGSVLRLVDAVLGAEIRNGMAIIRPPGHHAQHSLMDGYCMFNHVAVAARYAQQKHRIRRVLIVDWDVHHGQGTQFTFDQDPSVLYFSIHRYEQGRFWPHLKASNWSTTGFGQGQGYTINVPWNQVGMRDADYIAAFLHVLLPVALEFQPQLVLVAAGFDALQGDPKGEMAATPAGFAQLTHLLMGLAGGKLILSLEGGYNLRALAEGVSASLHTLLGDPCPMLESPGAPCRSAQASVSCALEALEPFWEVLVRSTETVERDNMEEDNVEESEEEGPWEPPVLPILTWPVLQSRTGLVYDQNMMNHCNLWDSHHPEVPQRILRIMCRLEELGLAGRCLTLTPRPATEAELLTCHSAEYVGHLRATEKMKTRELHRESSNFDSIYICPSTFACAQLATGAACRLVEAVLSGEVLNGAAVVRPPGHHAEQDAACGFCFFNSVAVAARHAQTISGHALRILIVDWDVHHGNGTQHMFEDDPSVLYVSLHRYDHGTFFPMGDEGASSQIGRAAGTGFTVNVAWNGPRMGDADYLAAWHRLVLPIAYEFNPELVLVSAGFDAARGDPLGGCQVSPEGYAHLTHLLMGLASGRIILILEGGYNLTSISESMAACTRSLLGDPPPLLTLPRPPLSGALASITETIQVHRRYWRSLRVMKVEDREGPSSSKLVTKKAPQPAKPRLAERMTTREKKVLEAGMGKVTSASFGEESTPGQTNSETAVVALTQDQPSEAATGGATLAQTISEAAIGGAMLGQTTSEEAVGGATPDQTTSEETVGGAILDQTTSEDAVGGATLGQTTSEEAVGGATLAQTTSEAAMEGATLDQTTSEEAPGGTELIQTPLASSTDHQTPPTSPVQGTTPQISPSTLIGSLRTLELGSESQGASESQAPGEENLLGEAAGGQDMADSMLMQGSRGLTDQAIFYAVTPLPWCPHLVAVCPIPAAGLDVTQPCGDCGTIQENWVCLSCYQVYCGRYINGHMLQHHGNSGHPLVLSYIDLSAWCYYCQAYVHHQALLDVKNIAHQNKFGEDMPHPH
Briefly: (§1) Inhibition of HDAC6 in human HeLa cells incubated for 15 mins by ELISA. It is filed as cell-based. For orientation: ELISA stands for enzyme-linked immunosorbent assay.

In series [5] the target is T4, Protein deacetylase HDAC6 (Homo sapiens, UniProt Q9UBN7).
T4 sequence (Q9UBN7 whole entry): T3 sequence (whole entry)
The description is as §1. In kind it is cell-based.

Chain of Histone deacetylase 3 (O15379 whole entry): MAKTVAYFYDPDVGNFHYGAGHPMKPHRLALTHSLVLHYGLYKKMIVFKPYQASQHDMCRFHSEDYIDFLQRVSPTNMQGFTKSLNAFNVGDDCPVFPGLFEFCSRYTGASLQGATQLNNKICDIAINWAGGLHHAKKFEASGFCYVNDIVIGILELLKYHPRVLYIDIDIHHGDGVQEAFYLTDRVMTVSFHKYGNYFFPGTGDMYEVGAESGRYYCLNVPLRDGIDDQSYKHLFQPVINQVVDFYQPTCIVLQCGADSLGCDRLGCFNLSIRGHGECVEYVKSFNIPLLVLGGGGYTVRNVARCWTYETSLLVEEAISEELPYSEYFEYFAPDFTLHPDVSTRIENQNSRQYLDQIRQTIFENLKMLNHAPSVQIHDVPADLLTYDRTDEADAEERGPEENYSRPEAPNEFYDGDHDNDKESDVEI

What is called IC50 is the concentration needed to halve the response being measured. For `CC(C)(C)c1ccc(C(=O)Nc2ccc(C(=O)NO)cc2)cc1`, the half-maximal inhibitory concentration (IC50) was 0.187 µM at Histone deacetylase 3, 0.245 µM at Histone deacetylase 8, > 1 µM on Histone deacetylase 7 and 0.58 µM in series [5]. For the same compound, the viability at 0.5 µM in the series on MV4-11 [1] was 48.7%. Besides, in the series with MV4-11 [2], the Activity is 20.69%. In series [3], the t1/2 was 28.3 min. Moreover, in series [4], the inhibition entry is “Dose-dependent effect”.
